Experimental data from publication PMC10599993, “The PTPN2/PTPN1 inhibitor ABBV-CLS-484 unleashes potent anti-tumour immunity” (Nature, 2023).

Key:
M3 = biological target: T1, M3 (Homo sapiens, UniProt P20309); assay: biochemical; parameters: Safety pharmacology off-target panel at Eurofins, radioligand binding with agonist or antagonist radioligand (Supplementary Table 2); settings: antagonist radioligand
T1 construct: gene CHRM3
Experimental: (§1) Wide-range phosphatase, kinase and preclinical safety pharmacology off-target activity screens were conducted at Eurofins (Extended Data Table 5 and Supplementary Tables 1 and 2). A small phosphatase panel was developed at AbbVie to assess IC50 values on select phosphatases. The following enzymes used in the phosphatase selectivity panel were purchased from Eurofins: PTPN1 (PTP1B; 14–621), PTPN2 (TC-PTP; 14–646), PTPN9 (14–592), SHP1 (14–591) and SHP2 (14–622). The catalytic activity of the phosphatase was monitored using the small-molecule substrate DiFMUP (ThermoFisher) in a fluorescence assay format. In brief, the phosphatase reactions were performed at room temperature in the following assay buffer: 50 mM HEPES, pH 7.2, 100 mM NaCl, 1 mM EDTA, 0.005% Tween-20 and 5 mM TCEP. Each phosphatase was incubated with increasing concentrations of AC484 for 5 min, after which the substrate DiFMUP was added and incubated at 25 °C for 30 min. The final concentration of the enzyme and substrate was maintained at 0.5 nM and 5 μM, respectively, in all the assays. The reaction was then quenched by the addition of a 100 μM solution of bpV(Phen) (Enzo Life Sciences). The fluorescence signal was monitored using an Envision microplate reader (Perkin-Elmer) using excitation and emission wavelengths of 340 nm and 450 nm, respectively. The dose–response curves for the inhibitors were analysed using normalized IC50 regression curve fitting with control-based normalization. Supplementary file 41586_2023_6575_MOESM4_ESM.xlsx: Supplementary Table 2 AC484 receptor selectivity screen.

CCK1 (CCKA) = biological target: T2, CCK1 (CCKA) (Homo sapiens, UniProt P32238); assay: biochemical; parameters: Safety pharmacology off-target panel at Eurofins, radioligand binding with agonist or antagonist radioligand (Supplementary Table 2); settings: agonist radioligand
T2 construct: gene CCKAR
Experimental: as §1

CB1 = biological target: T3, CB1 (Homo sapiens, UniProt P21554); assay: biochemical; parameters: Safety pharmacology off-target panel at Eurofins, radioligand binding with agonist or antagonist radioligand (Supplementary Table 2); settings: agonist radioligand
T3 construct: gene CNR1
Experimental: as §1

Motilin = biological target: T4, Motilin (Homo sapiens, UniProt O43193); assay: biochemical; parameters: Safety pharmacology off-target panel at Eurofins, radioligand binding with agonist or antagonist radioligand (Supplementary Table 2); settings: agonist radioligand
T4 construct: gene MLNR
Experimental: as §1

GR = biological target: T5, GR (Homo sapiens, UniProt P04150); assay: biochemical; parameters: Safety pharmacology off-target panel at Eurofins, radioligand binding with agonist or antagonist radioligand (Supplementary Table 2); settings: agonist radioligand
T5 construct: gene NR3C1
Experimental: as §1

Estrogen ER alpha = biological target: T6, Estrogen ER alpha (Homo sapiens, UniProt P03372); assay: biochemical; parameters: Safety pharmacology off-target panel at Eurofins, radioligand binding with agonist or antagonist radioligand (Supplementary Table 2); settings: agonist radioligand
T6 construct: gene ESR1
T6 sequence (P03372 whole entry): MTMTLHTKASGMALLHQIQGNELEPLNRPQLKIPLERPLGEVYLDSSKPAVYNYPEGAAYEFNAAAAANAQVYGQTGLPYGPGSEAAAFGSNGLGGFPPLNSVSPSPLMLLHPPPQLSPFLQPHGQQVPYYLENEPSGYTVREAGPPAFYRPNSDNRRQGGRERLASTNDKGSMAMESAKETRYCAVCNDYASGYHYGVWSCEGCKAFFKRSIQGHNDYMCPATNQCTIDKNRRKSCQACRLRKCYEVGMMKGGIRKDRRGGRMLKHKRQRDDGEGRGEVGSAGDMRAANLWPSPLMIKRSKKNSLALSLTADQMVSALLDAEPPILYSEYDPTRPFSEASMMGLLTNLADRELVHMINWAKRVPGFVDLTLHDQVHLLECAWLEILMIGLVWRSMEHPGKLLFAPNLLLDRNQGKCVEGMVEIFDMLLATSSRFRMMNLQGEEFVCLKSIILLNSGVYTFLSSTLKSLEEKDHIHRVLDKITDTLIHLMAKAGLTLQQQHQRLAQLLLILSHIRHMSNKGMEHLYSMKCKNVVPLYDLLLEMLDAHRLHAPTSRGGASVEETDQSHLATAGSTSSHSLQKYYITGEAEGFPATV
Experimental: as §1

A1 (h) = biological target: T7, A1 (h) (Homo sapiens, UniProt P30542); assay: biochemical; parameters: Safety pharmacology off-target panel at Eurofins, radioligand binding with agonist or antagonist radioligand (Supplementary Table 2); settings: antagonist radioligand
T7 construct: gene ADORA1
T7 sequence (P30542 whole entry): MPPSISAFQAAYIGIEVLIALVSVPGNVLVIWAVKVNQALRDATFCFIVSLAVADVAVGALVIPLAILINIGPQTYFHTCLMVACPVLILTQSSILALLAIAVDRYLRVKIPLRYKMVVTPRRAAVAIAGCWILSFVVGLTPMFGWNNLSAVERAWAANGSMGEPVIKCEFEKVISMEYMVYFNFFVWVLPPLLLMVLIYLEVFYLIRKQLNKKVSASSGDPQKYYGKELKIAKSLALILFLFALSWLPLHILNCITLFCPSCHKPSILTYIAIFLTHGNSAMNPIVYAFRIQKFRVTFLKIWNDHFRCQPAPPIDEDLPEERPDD
Experimental: as §1

A2B (h) = biological target: T8, A2B (h) (Homo sapiens, UniProt P29275); assay: biochemical; parameters: Safety pharmacology off-target panel at Eurofins, radioligand binding with agonist or antagonist radioligand (Supplementary Table 2); settings: antagonist radioligand
T8 construct: gene ADORA2B
Experimental: as §1

D2S = biological target: T9, D2S (Homo sapiens, UniProt P14416); assay: biochemical; parameters: Safety pharmacology off-target panel at Eurofins, radioligand binding with agonist or antagonist radioligand (Supplementary Table 2); settings: antagonist radioligand
T9 construct: gene DRD2; D2S short isoform
T9 sequence (P14416 whole entry, canonical isoform): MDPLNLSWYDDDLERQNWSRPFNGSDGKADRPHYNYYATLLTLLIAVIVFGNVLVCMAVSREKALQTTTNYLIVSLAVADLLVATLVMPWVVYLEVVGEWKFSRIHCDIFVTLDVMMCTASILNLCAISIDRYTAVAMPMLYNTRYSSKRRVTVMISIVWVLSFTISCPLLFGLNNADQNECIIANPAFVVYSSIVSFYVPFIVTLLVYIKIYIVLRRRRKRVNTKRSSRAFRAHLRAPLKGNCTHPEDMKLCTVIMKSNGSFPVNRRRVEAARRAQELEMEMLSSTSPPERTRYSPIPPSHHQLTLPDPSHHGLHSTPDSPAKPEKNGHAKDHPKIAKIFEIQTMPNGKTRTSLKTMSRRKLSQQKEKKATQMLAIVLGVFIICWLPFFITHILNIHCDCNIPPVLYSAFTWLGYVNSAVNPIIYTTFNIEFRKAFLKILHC
Experimental: as §1

Y1 = biological target: T10, Y1 (Homo sapiens, UniProt P25929); assay: biochemical; parameters: Safety pharmacology off-target panel at Eurofins, radioligand binding with agonist or antagonist radioligand (Supplementary Table 2); settings: agonist radioligand
T10 construct: gene NPY1R
Experimental: as §1

5-HT3 = biological target: T11, 5-HT3 (Homo sapiens, UniProt P46098); assay: biochemical; parameters: Safety pharmacology off-target panel at Eurofins, radioligand binding with agonist or antagonist radioligand (Supplementary Table 2); settings: antagonist radioligand
T11 construct: gene HTR3A
T11 sequence (P46098 whole entry): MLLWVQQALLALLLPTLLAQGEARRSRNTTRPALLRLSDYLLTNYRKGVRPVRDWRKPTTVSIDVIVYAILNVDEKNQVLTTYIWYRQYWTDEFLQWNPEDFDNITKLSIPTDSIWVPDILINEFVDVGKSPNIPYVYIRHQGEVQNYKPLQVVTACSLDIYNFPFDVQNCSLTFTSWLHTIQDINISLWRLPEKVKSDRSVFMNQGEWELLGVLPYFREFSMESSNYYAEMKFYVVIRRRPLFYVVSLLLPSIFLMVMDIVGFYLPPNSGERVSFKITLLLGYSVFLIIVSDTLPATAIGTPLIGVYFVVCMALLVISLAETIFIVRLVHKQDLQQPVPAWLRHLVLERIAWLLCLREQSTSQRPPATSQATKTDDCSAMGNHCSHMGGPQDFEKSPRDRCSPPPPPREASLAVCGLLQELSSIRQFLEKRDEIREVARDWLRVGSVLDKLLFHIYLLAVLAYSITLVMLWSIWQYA
Experimental: as §1

NK1 = biological target: T12, NK1 (Homo sapiens, UniProt P25103); assay: biochemical; parameters: Safety pharmacology off-target panel at Eurofins, radioligand binding with agonist or antagonist radioligand (Supplementary Table 2); settings: agonist radioligand
T12 construct: gene TACR1
Experimental: as §1

ETA = biological target: T13, ETA (Homo sapiens, UniProt P25101); assay: biochemical; parameters: Safety pharmacology off-target panel at Eurofins, radioligand binding with agonist or antagonist radioligand (Supplementary Table 2); settings: agonist radioligand
T13 construct: gene EDNRA
T13 sequence (P25101 whole entry): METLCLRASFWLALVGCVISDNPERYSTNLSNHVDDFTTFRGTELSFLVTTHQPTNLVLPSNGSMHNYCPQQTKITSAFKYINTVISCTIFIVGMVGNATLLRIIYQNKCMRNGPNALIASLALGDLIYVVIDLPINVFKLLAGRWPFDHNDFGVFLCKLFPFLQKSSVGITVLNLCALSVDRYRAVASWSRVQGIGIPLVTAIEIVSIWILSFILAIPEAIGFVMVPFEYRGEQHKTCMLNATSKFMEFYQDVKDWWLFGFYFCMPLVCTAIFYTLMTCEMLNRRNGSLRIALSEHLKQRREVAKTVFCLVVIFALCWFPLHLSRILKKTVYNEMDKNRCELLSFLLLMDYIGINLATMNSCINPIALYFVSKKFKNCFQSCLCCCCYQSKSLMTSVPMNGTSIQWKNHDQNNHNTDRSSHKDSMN
Experimental: as §1

MT2 (ML1B) = biological target: T14, MT2 (ML1B) (Homo sapiens, UniProt P49286); assay: biochemical; parameters: Safety pharmacology off-target panel at Eurofins, radioligand binding with agonist or antagonist radioligand (Supplementary Table 2); settings: agonist radioligand
T14 construct: gene MTNR1B; ML1B
Experimental: as §1

AR = AR (Homo sapiens, UniProt P10275); assay: biochemical; parameters: Safety pharmacology off-target panel at Eurofins, radioligand binding with agonist or antagonist radioligand (Supplementary Table 2); settings: agonist radioligand
Chain of AR (P10275 whole entry): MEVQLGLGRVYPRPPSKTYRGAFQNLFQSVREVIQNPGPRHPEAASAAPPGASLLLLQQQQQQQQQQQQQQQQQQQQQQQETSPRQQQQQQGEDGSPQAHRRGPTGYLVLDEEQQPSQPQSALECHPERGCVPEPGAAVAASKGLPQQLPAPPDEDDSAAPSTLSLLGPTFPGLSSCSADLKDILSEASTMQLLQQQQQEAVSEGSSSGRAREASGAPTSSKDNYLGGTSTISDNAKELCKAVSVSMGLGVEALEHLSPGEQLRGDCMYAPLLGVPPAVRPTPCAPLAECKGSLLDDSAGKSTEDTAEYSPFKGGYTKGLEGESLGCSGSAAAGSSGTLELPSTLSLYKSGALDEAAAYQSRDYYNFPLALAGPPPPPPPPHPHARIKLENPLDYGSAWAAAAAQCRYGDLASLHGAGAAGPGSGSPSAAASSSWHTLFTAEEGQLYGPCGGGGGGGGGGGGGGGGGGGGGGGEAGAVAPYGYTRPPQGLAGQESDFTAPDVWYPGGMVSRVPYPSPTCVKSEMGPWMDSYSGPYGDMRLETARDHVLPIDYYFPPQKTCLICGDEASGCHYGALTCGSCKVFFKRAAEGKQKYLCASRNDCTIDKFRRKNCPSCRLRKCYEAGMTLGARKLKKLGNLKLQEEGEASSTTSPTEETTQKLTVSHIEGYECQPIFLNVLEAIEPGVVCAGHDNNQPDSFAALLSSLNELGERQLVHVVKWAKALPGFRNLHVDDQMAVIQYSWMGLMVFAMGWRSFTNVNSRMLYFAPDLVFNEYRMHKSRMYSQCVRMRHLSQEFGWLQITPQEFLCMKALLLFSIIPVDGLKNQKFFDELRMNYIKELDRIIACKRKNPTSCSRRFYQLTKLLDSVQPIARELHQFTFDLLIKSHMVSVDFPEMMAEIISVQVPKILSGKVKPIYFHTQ
Experimental: as §1

AT2 (h) = biological target: T15, AT2 (h) (Homo sapiens, UniProt P50052); assay: biochemical; parameters: Safety pharmacology off-target panel at Eurofins, radioligand binding with agonist or antagonist radioligand (Supplementary Table 2); settings: agonist radioligand
T15 construct: gene AGTR2
T15 sequence (P50052 whole entry): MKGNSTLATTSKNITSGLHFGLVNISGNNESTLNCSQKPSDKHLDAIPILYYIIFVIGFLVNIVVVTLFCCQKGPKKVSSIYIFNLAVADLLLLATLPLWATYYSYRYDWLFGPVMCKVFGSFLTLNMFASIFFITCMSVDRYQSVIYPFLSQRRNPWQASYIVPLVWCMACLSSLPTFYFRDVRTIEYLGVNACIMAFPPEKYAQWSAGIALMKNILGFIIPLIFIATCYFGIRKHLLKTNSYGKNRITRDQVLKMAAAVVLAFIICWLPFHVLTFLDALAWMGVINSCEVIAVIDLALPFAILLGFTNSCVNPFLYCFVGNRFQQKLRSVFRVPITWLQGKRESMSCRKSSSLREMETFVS
Experimental: as §1

PKCbeta2 = biological target: T16, PKCbeta2 (Homo sapiens, UniProt P05771); assay: biochemical; parameters: Kinase selectivity panel, IC50 of AC484 (Supplementary Table 1)
T16 construct: gene PRKCB; isoform beta2
T16 sequence (P05771 whole entry, canonical isoform): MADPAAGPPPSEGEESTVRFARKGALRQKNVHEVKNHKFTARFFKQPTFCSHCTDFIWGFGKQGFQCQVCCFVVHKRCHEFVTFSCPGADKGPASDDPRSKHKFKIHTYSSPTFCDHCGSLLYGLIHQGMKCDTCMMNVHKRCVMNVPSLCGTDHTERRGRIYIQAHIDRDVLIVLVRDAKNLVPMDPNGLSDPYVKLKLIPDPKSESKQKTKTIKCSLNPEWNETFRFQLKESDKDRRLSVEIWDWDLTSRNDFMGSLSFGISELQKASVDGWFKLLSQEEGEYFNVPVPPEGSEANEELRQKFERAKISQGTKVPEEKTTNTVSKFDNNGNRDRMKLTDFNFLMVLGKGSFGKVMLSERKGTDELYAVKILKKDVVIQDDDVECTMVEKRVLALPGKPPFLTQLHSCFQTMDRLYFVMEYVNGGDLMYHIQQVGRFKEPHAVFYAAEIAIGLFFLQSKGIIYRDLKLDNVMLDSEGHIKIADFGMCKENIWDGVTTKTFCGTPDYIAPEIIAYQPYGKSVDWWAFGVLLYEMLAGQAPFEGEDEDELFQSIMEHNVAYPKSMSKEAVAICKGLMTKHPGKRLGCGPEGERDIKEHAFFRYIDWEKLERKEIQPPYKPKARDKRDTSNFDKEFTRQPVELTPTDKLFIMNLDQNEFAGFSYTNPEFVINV

PTPN2 = biological target: T17, PTPN2 (Homo sapiens, UniProt P17706); assay: X-ray crystal structure (soak); mobility shift enzyme assay IC50; format: biochemical
T17 construct: Met1–Asn314, C-terminal 8× histidine tag (crystal); full-length recombinant (IC50)
From the text: X-ray crystal structure (soak); mobility shift enzyme assay IC50 on PTPN2 | The crystal structure of the PTPN2 protein with AC484 confirmed the formation of several crucial interactions in the active site

PTPN1 = biological target: T18, PTPN1 (Homo sapiens, UniProt P18031); assay: mobility shift enzyme assay with labelled insulin receptor phosphopeptide (crystal with PTPN1 mentioned, data not shown); format: biochemical
T18 construct: full-length recombinant

T1 sequence (P20309 whole entry): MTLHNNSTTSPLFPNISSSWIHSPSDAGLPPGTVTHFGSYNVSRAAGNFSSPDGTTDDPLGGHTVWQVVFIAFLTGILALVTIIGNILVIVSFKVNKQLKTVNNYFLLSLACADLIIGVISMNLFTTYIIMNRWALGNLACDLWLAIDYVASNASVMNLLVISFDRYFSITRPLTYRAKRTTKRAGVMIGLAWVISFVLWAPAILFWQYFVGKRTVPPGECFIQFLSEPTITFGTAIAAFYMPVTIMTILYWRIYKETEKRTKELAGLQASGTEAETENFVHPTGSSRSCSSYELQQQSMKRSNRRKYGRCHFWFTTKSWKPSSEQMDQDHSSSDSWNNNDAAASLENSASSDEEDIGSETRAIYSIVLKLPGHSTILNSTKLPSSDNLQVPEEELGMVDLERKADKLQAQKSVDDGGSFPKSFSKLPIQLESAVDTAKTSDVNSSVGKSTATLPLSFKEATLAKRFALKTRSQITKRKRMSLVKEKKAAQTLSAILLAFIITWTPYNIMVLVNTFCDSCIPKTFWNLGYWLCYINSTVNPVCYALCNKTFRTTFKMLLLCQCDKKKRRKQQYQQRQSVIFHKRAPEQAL

CC(C)CCN[C@@H]1CCc2cc(O)c(N3CC(=O)NS3(=O)=O)c(F)c2C1 [AC484, ABBV-CLS-484]
0.0025 µM: IC50 (PTPN1)
> 10 µM: IC50 (PKCbeta2)
0.0018 µM: IC50 (PTPN2)
> 0.01 mM: AC50 (M3) | AC50 (CCK1 (CCKA)) | AC50 (CB1) | AC50 (Motilin) | AC50 (GR) | AC50 (Estrogen ER alpha) | AC50 (A1 (h)) | AC50 (A2B (h)) | AC50 (D2S) | AC50 (Y1) | AC50 (5-HT3) | AC50 (NK1) | AC50 (ETA) | AC50 (MT2 (ML1B)) | AC50 (AR) | AC50 (AT2 (h))
